# According to US11744798B2, “Injectable pharmaceutical formulation” (UPM-Kymmene Corporation, priority 2019, dated 2023):
# Tests used:
# [1] = Cumulative release study of CPF from NFC depots with solvents; type: physicochemical
# Method: Cumulative release study aiming to increase the release rate of CPF and receive close to 100% cumulative result for NFC-formulations within 7 days. Following detailed tasks were performed: • Two solvents, DMSO (Dimethyl sulfoxide) and NMP (N-methyl-2-pyrrolidone), in addition to H2O were used to enhance release of CPF • 6% anionic and 1.5% native NFC were studied • Study included formulation and short in vitro dissolution studies for NFC-API depots to follow cumulative release
# Cumulative release study aiming to increase cumulative result for NFC-formulations was performed with CPF, as it had clearly lower cumulative release results in previous experiments compared to MLX. 6% anionic and 1.5% native NFC were studied. Two solvents, DMSO (dimethyl sulfoxide) and NMP (N-methyl-2-pyrrolidone), in addition to H2O were used to enhance the release of CPF. The study included formulation and short in vitro dissolution studies for NFC-API depots to follow cumulative release (FIG. 7). Depots contained 50% of solvent and 50% of NFC.
# However, the increase was most apparent within the first hours and first day of study, which after the release reverted to the level of pure NFC formulations.
# [2] = water at 25° C.; cited from earlier work
SMILES,effect on release of CPF ([1]; 50% DMSO in NFC depot),effect on release of CPF ([1]; 50% NMP in NFC depot),solubility in water [2]
CC(C(=O)O)c1ccc2c(c1)[nH]c1ccc(Cl)cc12 (stereo not drawn) [Carprofen],increased the release,increased the release,
Cc1cnc(NC(=O)C2=C(O)c3ccccc3S(=O)(=O)N2C)s1 [Meloxicam],,,7.15 µg/mL
